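Following 48 hours of exposure in 96-well plates, responses at five concentrations were used to interpolate endpoints linearly. TGI: total growth inhibition.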
Columns and labels:
Assay in all cases: DTP human tumour cell line panel, 48 h
SF-539 CNS = system: SF-539 CNS
ACHN renal = system: ACHN renal
786-0 renal = system: 786-0 renal
KM12 colon = system: KM12 colon
HT29 colon = system: HT29 colon
BT-549 breast = system: BT-549 breast
A498 renal = system: A498 renal
MDA-MB-231 breast = system: MDA-MB-231 breast
DU-145 prostate = system: DU-145 prostate
HOP-92 NSCLC = system: HOP-92 NSCLC
T-47D breast = system: T-47D breast
HCT-116 colon = system: HCT-116 colon
K-562 leukemia = system: K-562 leukemia
NCI-H522 lung = system: NCI-H522 lung
MCF7 breast = system: MCF7 breast
TK-10 renal = system: TK-10 renal
U251 CNS = system: U251 CNS
LOX IMVI melanoma = system: LOX IMVI melanoma

Measured: TGI

CCCCCC/C=C\CCCCCCCCCc1cccc(O)c1C(=O)O
not listed: LOX IMVI melanoma
> 100 µM: all other assays above

COC(=O)C1CC2(CCC1=O)Cc1ccccc1C2=O (stereo not drawn)
not listed: A498 renal | HOP-92 NSCLC
> 100 µM: all other assays above

C1=NCCNCCN=Cc2ccc(cc2)OCc2cccc(n2)COc2ccc1cc2
68.7 µM: ACHN renal
not listed: TK-10 renal | LOX IMVI melanoma
> 100 µM: all other assays above

COC(=O)C1C(OC(=O)c2ccccc2)CC2CCC1N2C(N)=O (stereo not drawn)
not listed: TK-10 renal
> 100 µM: all other assays above

COC(=O)C1=CSC2(S1)C(C(=O)OC)=CSc1c2ssc1=Nc1ccccc1 (stereo not drawn)
4.06 µM: HCT-116 colon
10.4 µM: TK-10 renal
3.4 µM: NCI-H522 lung
10.1 µM: KM12 colon | U251 CNS
6.57 µM: ACHN renal
16.2 µM: DU-145 prostate
4.79 µM: MDA-MB-231 breast
> 100 µM: T-47D breast | MCF7 breast
2.96 µM: SF-539 CNS
5.85 µM: HT29 colon
3.87 µM: 786-0 renal
22.6 µM: BT-549 breast
6.54 µM: A498 renal
7.38 µM: K-562 leukemia
4.1 µM: LOX IMVI melanoma

O=c1oc2ccccc2c(Nc2ccc3c(c2)S(=O)(=O)c2ccccc2O3)c1[N+](=O)[O-]
62.3 µM: T-47D breast
71.3 µM: K-562 leukemia
65.2 µM: SF-539 CNS
58.4 µM: 786-0 renal
70.2 µM: ACHN renal
56.6 µM: MCF7 breast
42.1 µM: U251 CNS
62.6 µM: TK-10 renal
55.9 µM: HOP-92 NSCLC
42.9 µM: NCI-H522 lung
67.9 µM: MDA-MB-231 breast
70.4 µM: BT-549 breast
65 µM: HCT-116 colon
not listed: A498 renal
> 100 µM: all other assays above

Cc1cc(C)c(C2=NOC(c3ccccc3)(c3cc(=O)n(-c4ccccc4)s3)O2)c(C)c1 (stereo not drawn)
41.3 µM: 786-0 renal
66.4 µM: U251 CNS
37.2 µM: MCF7 breast
95 µM: MDA-MB-231 breast
52.2 µM: ACHN renal
77.1 µM: TK-10 renal
44 µM: T-47D breast
35.8 µM: NCI-H522 lung
62.5 µM: HOP-92 NSCLC
30.7 µM: LOX IMVI melanoma
41.2 µM: HT29 colon
52.4 µM: BT-549 breast
not listed: SF-539 CNS
> 100 µM: all other assays above

Cc1c(/C=N/NC(=S)Nc2ccccc2Cl)c(=O)n(-c2ccccc2)n1C
50 µM: 786-0 renal
35.7 µM: MDA-MB-231 breast
60.9 µM: NCI-H522 lung
91.7 µM: TK-10 renal
not listed: ACHN renal | HOP-92 NSCLC
> 100 µM: all other assays above

Cc1cc(=O)[nH]c(NN2C(Cl)C(=O)C2c2ccc(Cl)cc2)n1 (stereo not drawn)
16.1 µM: KM12 colon
48.6 µM: TK-10 renal
52.4 µM: U251 CNS
86.9 µM: BT-549 breast
72 µM: MDA-MB-231 breast
66.6 µM: DU-145 prostate
42.5 µM: MCF7 breast
31.1 µM: HCT-116 colon
43.4 µM: T-47D breast
53.6 µM: A498 renal
33 µM: 786-0 renal
16.2 µM: K-562 leukemia
54.9 µM: HT29 colon
27.7 µM: HOP-92 NSCLC
15.1 µM: LOX IMVI melanoma
> 56.4 µM: ACHN renal
33.3 µM: SF-539 CNS

CC1(CCC2C=CCC2)CCCNC1=S (stereo not drawn)
not listed: NCI-H522 lung
> 10 µM: all other assays above

CC1(C)CC(=O)c2c(nc3ccc4ccccc4c3c2-c2ccc(NC(=O)CCCC(=O)Nc3ccc(-c4c5c(nc6ccc7ccccc7c46)CC(C)(C)CC5=O)cc3)cc2)C1
not listed: NCI-H522 lung
> 100 µM: all other assays above

COc1c2c(cc3oc(C)cc(=O)c13)OC(=N)C(C(N)=O)C2CC(=O)c1ccc(N)cc1 (stereo not drawn)
not listed: HT29 colon
> 100 µM: all other assays above

Cc1n[nH]c(=O)c2cc(-c3ccccc3)[nH]c12
92.3 µM: A498 renal
not listed: NCI-H522 lung
> 100 µM: all other assays above

O=c1oc2ccccc2cc1/C=N/N1C(=S)N(c2ccccc2)C(=Nc2ccccc2)C1=Nc1ccccc1
not listed: HT29 colon | A498 renal | LOX IMVI melanoma
> 100 µM: all other assays above
